Here are results for 24 molecules from US20250171431A1, “HETEROCYCLIC INHIBITORS OF IGF-1R FOR TREATMENT OF DISEASE” (HORIZON THERAPEUTICS IRELAND DAC, priority 2023, published 2025).

Chain of IGF-1R (P08069 31-1367): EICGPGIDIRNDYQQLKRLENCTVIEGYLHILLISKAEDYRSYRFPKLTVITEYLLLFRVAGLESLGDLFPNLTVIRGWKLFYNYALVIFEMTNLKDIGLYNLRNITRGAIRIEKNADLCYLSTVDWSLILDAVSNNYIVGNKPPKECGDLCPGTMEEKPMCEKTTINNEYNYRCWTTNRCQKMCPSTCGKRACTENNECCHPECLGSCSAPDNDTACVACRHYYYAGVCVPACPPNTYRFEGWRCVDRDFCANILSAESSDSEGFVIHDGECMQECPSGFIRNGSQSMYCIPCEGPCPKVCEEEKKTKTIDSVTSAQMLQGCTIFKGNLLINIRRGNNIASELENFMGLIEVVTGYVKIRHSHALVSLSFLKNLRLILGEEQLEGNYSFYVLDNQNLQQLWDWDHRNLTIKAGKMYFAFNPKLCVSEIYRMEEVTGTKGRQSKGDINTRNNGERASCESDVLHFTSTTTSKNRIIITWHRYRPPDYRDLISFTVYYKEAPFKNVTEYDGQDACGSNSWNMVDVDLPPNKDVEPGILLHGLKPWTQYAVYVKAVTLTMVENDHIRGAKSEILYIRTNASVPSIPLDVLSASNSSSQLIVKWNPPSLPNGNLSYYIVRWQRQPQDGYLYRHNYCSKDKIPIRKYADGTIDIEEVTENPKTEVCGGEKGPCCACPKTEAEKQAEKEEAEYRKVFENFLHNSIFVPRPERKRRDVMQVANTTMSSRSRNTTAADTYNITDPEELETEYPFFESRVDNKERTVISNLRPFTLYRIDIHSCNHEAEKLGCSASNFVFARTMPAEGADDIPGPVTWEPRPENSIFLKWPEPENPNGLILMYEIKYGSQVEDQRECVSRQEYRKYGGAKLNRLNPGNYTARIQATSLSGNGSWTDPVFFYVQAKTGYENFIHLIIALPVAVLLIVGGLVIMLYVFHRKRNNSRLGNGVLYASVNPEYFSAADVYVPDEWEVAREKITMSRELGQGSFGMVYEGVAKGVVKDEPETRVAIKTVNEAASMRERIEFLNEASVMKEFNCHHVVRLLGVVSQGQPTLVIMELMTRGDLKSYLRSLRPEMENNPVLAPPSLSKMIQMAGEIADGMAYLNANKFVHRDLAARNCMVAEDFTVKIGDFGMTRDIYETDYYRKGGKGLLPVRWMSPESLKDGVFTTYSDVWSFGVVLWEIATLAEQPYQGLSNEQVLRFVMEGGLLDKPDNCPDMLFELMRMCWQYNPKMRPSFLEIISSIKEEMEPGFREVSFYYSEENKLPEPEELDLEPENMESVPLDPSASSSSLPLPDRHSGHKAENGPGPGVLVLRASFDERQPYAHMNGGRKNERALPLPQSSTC

The experiment deals with IGF-1R (Homo sapiens (Human), UniProt P08069). Nature of the experiment: Example B-1: IGF-1R Assay (PC3 cells, IGF1 stimulation, AlphaLISA). The format is cell-based. The conditions noted are these: 200 ng/mL IGF1 stimulation, read-out: Biological Activity against IGF-1R IC50. The method, boiled down:
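Readout is AlphaLISA signal from lysed PC3 cells, expressed as % inhibition versus vehicle and EC80 controls and banded by IC50. Before lysis, the cells were starved of serum for 2 h, exposed to 3× serially diluted compound for 2 h, and stimulated for 30 min with 200 ng/mL IGF1 (final).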
On to `COc1nc(N2CCC(C)(O)CC2)ccc1Nc1nccc(Nc2cnc3cc(F)c(F)cc3c2)n1` [Compound 487, 1-{5-[4-(6,7-difluoro-3-quinolylamino)-2-pyrimidinylamino]-6-methoxy-2-pyridyl}-4-methyl-4-piperidinol], for which the IC50 was no more than 500 nM.
Take `COc1cc(N2CCN(C)CC2)ccc1Nc1nccc(Nc2cnc3c(Cl)cccc3c2)n1` [Compound 467, 4-(8-chloro-3-quinolylamino)-2-[2-methoxy-4-(4-methyl-1-piperazinyl)phenylamino] pyrimidine]: the half-inhibitory concentration (IC50) was no more than 500 nM.
For `COc1cc(Nc2nccc(Nc3cc4cccc(F)c4[nH]c3=O)n2)cnc1N1CCNC(C(F)(F)F)C1` (stereo not drawn) [Compound 239, 8-fluoro-3-(2-{5-methoxy-6-[3-(trifluoromethyl)-1-piperazinyl]-3-pyridylamino}-4-pyrimidinylamino)-1,2-dihydro-2-quinolinone], the IC50 is no more than 500 nM.
Then `CN1[C@@H]2COC[C@H]1C[C@H](Oc1ccc(Nc3nccc(Nc4cnc5ccccc5c4)n3)cc1)C2` [Compound 30, 2-(p-{(1R,5S,7s)-9-methyl-3-oxa-9-azabicyclo[3.3.1]non-7-yloxy}phenylamino)-4-(3-quinolylamino)pyrimidine], with no more than 500 nM.
Then `COc1cc(Nc2nccc(Nc3cc4cccc(F)c4[nH]c3=O)n2)cnc1N1CCN(CC#N)CC1` [Compound 236, (4-{5-[4-(8-fluoro-2-oxo-1,2-dihydro-3-quinolylamino)-2-pyrimidinylamino]-3-methoxy-2-pyridyl}-1-piperazinyl)acetonitrile], with no more than 500 nM; and `COc1cccc2cc(Nc3ccnc(Nc4ccc(OCCCN5CCOCC5)cc4)n3)cnc12` [Compound 417, 4-(8-methoxy-3-quinolylamino)-2-[p-(3-morpholinopropoxy)phenylamino]pyrimidine], with 500 to 2000 nM; and `COc1cc(Nc2nccc(Nc3cnc4cc(OC(F)(F)F)ccc4c3)n2)ccc1O[C@H]1C[C@H](N(C)C)C1` [Compound 8, 2-{3-methoxy-4-[(1r,3r)-3-(dimethylamino)cyclobutoxy]phenylamino}-4-(7-trifluoromethoxy-3-quinolylamino)pyrimidine], with no more than 500 nM.
Then `COc1cc(Nc2nccc(Nc3cnc4c(c3)CC3(CCC3)CC4)n2)ccc1O[C@H]1C[C@H](N(C)C)C1` [Compound 80, 4-(7′,8′-dihydro-5′H-spiro[cyclobutane-1,6′-quinolin]-3′-ylamino)-2-{3-methoxy-4-[(1r,3r)-3-(dimethylamino)cyclobutoxy]phenylamino}pyrimidine], with no more than 500 nM; and `COc1cc(Nc2nccc(Nc3cc4cccc(F)c4[nH]c3=O)n2)ccc1N1CCN(C)C(C)(C)C1` [Compound 175, 8-fluoro-3-((2-((3-methoxy-4-(3,3,4-trimethylpiperazin-1-yl)phenyl)amino)pyrimidin-4-yl)amino)quinolin-2(1H)-one], with no more than 500 nM.
For `CN(C)[C@H]1C[C@H](Oc2ccc(Nc3nccc(Nc4cnc5ccccc5c4)n3)cc2C(F)(F)F)C1` [Compound 36, 4-(3-quinolylamino)-2-{4-[(1r,3r)-3-(dimethylamino)cyclobutoxy]-3-(trifluoromethyl)phenylamino} pyrimidine], the IC50 was no more than 500 nM.
With `COc1nc(N2CCN(C)CC2)ccc1Nc1nccc(Nc2cnc3cc(F)c(F)cc3c2)n1` [Compound 472, 4-(6,7-difluoro-3-quinolylamino)-2-[2-methoxy-6-(4-methyl-1-piperazinyl)-3-pyridylamino]pyrimidine] the figure was no more than 500 nM; with `FC(F)(F)c1ccc2cc(Nc3ccnc(Nc4ccc(OCCCN5CCOCC5)cc4)n3)cnc2c1` [Compound 395, 2-[p-(3-morpholinopropoxy)phenylamino]-4-[7-(trifluoromethyl)-3-quinolylamino]pyrimidine], 2000 to 10000 nM; with `COc1ccc2cc(Nc3ccnc(Nc4ccc(O[C@H]5C[C@H](N(C)C)C5)cc4)n3)cnc2c1` [Compound 355, 4-(7-methoxy-3-quinolylamino)-2-{p-[(1r,3r)-3-(dimethylamino)cyclobutoxy]phenylamino}pyrimidine], 500 to 2000 nM.
`COc1cc(Nc2nccc(Nc3cnc4[nH]ccc4c3)n2)ccc1OCCCN1CCCCC1` [Compound 381, 4-(1H-1,7-diazainden-5-ylamino)-2-[3-methoxy-4-(3-piperidinopropoxy)phenylamino]pyrimidine]: the half-inhibitory concentration (IC50) was no more than 500 nM.
With `COc1ccc2cc(Nc3ccnc(Nc4ccc(O[C@@H]5C[C@H]6COC[C@@H](C5)N6C)cc4)n3)cnc2c1` [Compound 345, 2-(p-{(1R,5S,7s)-9-methyl-3-oxa-9-azabicyclo[3.3.1]non-7-yloxy}phenylamino)-4-(7-methoxy-3-quinolylamino)pyrimidine] the figure was 500 to 2000 nM; with `COc1cc(Nc2nccc(Nc3cnc4c(c3)OCCO4)n2)ccc1O[C@H]1CC[C@@H](N(C)C)CC1` [Compound 273], no more than 500 nM; with `COc1cc(Nc2nccc(Nc3cnc4cc(F)c(F)cc4c3)n2)cnc1N1CCOCC1` [Compound 469, 4-(6,7-difluoro-3-quinolylamino)-2-(5-methoxy-6-morpholino-3-pyridylamino)pyrimidine], no more than 500 nM.
Then `COc1nc(N2CCN(C)CC2)ccc1Nc1nccc(Nc2cc3cccc(F)c3nc2O)n1` [Compound 90, 8-fluoro-3-{2-[2-methoxy-6-(4-methyl-1-piperazinyl)-3-pyridylamino]-4-pyrimidinylamino}-2-quinolinol], with no more than 500 nM.
Turning to `O=S1(=O)CCN([C@H]2CC[C@@H](Oc3ccc(Nc4nccc(Nc5cnc6ccccc6c5)n4)cc3)CC2)CC1` [Compound 38, 4-[(1s,4s)-4-{p-[4-(3-quinolylamino)-2-pyrimidinylamino]phenoxy}cyclohexyl]-126,4-thiazinane-1,1-dione], the IC50 is no more than 500 nM.
Then `COc1cc(Nc2nccc(Nc3cc4ccccc4[nH]c3=O)n2)cnc1O[C@H]1C[C@@H](N(C)C)C1` [Compound 11, 3-(2-{5-methoxy-6-[(1s,3s)-3-(dimethylamino)cyclobutoxy]-3-pyridylamino}-4-pyrimidinylamino)-2(1H)-quinolinone], with no more than 500 nM; and `COc1cc(Nc2nccc(Nc3cnc4c(c3)CC(O)CC4)n2)ccc1O[C@H]1C[C@@H](N(C)C)C1` (stereo partly drawn) [Compound 82, 3-(2-{3-methoxy-4-[(1s,3s)-3-(dimethylamino)cyclobutoxy]phenylamino}-4-pyrimidinylamino)-5,6,7,8-tetrahydro-6-quinolinol], with 500 to 2000 nM; and `c1cc(Nc2cnc3c(c2)CC2(CC3)OCCO2)nc(Nc2ccc(OCCCN3CCOCC3)cc2)n1` [Compound 68, 4-(7′,8′-dihydro-5′H-spiro[1,3-dioxolane-2,6′-quinolin]-3′-ylamino)-2-[p-(3-morpholinopropoxy)phenylamino] pyrimidine], with no more than 500 nM.
Consider `Brc1ccc2cc(Nc3ccnc(Nc4ccc(OCCCN5CCOCC5)cc4)n3)cnc2c1` [Compound 409, 4-(7-bromo-3-quinolylamino)-2-[p-(3-morpholinopropoxy)phenylamino]pyrimidine], for which the IC50 is 2000 to 10000 nM.
Turning to `COc1cc(Nc2nccc(Nc3cnc4ccc(Cl)cc4c3)n2)ccc1O[C@H]1CC[C@@H](N(C)C)CC1` [Compound 286, 4-(6-chloro-3-quinolylamino)-2-{3-methoxy-4-[(1s,4s)-4-(dimethylamino)cyclohexyloxy]phenylamino}pyrimidine], the half-maximal inhibitory concentration (IC50) was no more than 500 nM.
